Source: publication PMC10846744, “Cathelicidin peptide analogues inhibit EV71 infection through blocking viral entry and uncoating” (PLOS Pathogens, 2024)

Tests used:
EV71 virions = assay: Viral particle stability thermal release assay (PaSTRY); set-up: species or system enterovirus 71 (EV71); settings: EV71 MOI = 10 pre-incubated with LL-18 or NaCl, SYBR green II, heated 25°C to 80°C; PBS control around 45°C
Protocol: Fig 6 LL-18 stabilizes the viral particles by inhibiting uncoating. (A) EV71 virus (MOI = 10) was pre-incubated with PBS, indicated amount of LL-18 or NaCl for 1 hr and then mixed with SYBR green dyes II before they were heated to indicated temperatures. The fluorescent signals were measured and plotted against temperature. PBS was used as a negative control. (B) EV71 virus (MOI = 10) was pre-incubated with PBS, LL-18, or 12s for 2 hrs. Half of the samples were then treated with 1.5 μg SCARB2 protein and incubated at 37°C for 2 hrs at pH 5.5. Samples were then subjected to ultracentrifugation as detailed in materials and methods. The numbers above represent the fractions collected from top to bottom.
EV71 viruses were preincubated with either PBS, NaCl or the indicated amount of LL-18 at room temperature for 2 hrs, before Sybr green II dye (3× working concentration, Solarbio, China) and RNase inhibitor (1 U/μL, Thermo Scientific) were added. The mixture was heated from 25°C to 80°C with an increment of 0.5°C for 30 seconds, and the fluorescence from SYBR green was monitored with a QuantGene 9600 real-time PCR system (Bioer, China).

RD cells = assay: Cytotoxicity of peptides on RD cells (Cell Titer-Glo); format: cell-based, human; settings: cell viability plotted against peptide concentration, Cell Titer-Glo (S1A-S1D Fig)
Protocol: To test whether Cathelicidin peptide (LL-37) and its analogues could inhibit enterovirus infection, we conducted viral infection inhibition test on RD cells, which are one of the most commonly used cells for enterovirus propagation. We first assessed the cytotoxicity of LL-37, LL-18, FF-18, and a short form of LL-37 (DL-37) (Fig 1A), and all the peptides tested have a CC50 over 50 μM (S1A–S1D Fig). We then chose lower concentrations to test their antiviral activity. […] In addition, EV71 infection could cause cytopathic effect (CPE) on RD cells, and peptide could rescue EV71-induced cell death as assayed by crystal violet staining (Fig 1E) or cellular ATP content measurement (Fig 1F).
(§1) Cell viability assays were carried out using the Cell Titer-Glo Luminescent Cell Viability Assay Kit (Promega, Madison, WI) following the manufacturer’s instructions. Luminescence signals were measured using a BioTek Neo2 microplate reader.
(A-D) Cell viability of RD cells treated with the indicated amount of DL-37 (A), LL-37 (B), LL-18 (C), or FF-18 (D) was plotted against peptide concentration, and the cytotoxicity was determined. (E) EV71 virus pre-incubated with indicated amounts of DL-37, and the cell viability was determined 24 h.p.i. ***, P<0.001. (F-G) CVB5 (F) or Echo7 (G) virus pre-incubated with 0.3, 0.9, or 1.5 μM of peptides were used to infect RD cells. Cell viability was determined 24 h.p.i. ***, P<0.001. (H-I) CVB5 (H) or Echo7 (I) virus pre-incubated with 3, 6, or 12 μM of peptides were used to infect RD cells. Cell viability was determined 24 h.p.i. ***, P<0.001. (TIF) Click here for additional data file.

EV71 virus [1] = assay: EV71 infection inhibition on RD cells (VP1 immunoblot, viral titer, cell viability/CPE); format: cell-based, enterovirus 71 (EV71); settings: RD cells; for inhibition of EV71 infection at 0.3, 0.9, or 1.5 μM / inhibition of EV71 infection at higher concentration: cell viability or viral titer 24 h.p.i; for inhibition of EV71 infection at 0.3, 0.9, or 1.5 μM: 0.3, 0.9, or 1.5 μM peptide; for inhibition of EV71 infection at higher concentration: much higher concentration than 1.5 μM
Protocol: Synthetic peptides were purchased from Bioyears Co. Ltd. (Wuhan, China) with purity of more than 95% and dissolved in PBS. To test their inhibitory effects, the EV71 virus (MOI = 1) was incubated with the indicated amount of peptide at room temperature for 1 hr before the mixture was added to RD cells and maintained throughout the experiment. Cell viability, viral titer, or viral protein expression was determined 24 h.p.i. For the time-of-addition experiment, viruses were either pre-incubated with peptides (for the -2 and -1 time points), the mixture was added to the cells simultaneously (for 0 time point), or peptides were added after virus infection (for 1, 2, 4 and 7 h time points) and the virus/peptide was maintained in the culture before cell viability, viral titer, or viral protein expression was determined 24 h.p.i. The TCID50 of the virus was calculated according to the Reed-Muench method.
Cells were treated as described and harvested with LDS sample buffer (Thermo Fisher Scientific). After denaturation, samples were separated on 10% SDS-PAGE gel and then transferred to a polyvinylidene fluoride (PVDF) membrane. The proteins were blocked using 5% skimmed milk and probed with the corresponding antibodies. The following antibodies were used in this study: EV71 VP1 polyclonal antibody (GeneTex, Taiwan, China), β-Actin antibody (Zen BioScience, Chengdu, China), pan-Enterovirus Monoclonal antibody (Thermo Fisher Scientific). The chemiluminescence signals were visualized using ECL Advance reagents (Mishubio, China), and the images were acquired using the FUSION Solo S Imaging System (VILBER, France).
as §1
For crystal violet staining, cells treated as indicated were first washed once with PBS, followed by fixation with 4% PFA. Cells were then stained with 0.5% crystal violet for 2 hrs before they were extensively washed with water.

CVB5 virus = assay: 1H NMR titration of peptide with CVB5 virus; format: binding, coxsackievirus B5; settings: molar ratio peptide to virus 90:1, 800 MHz, 298k
Protocol: (§2) The NMR titrations were performed on a Bruker 800 MHz (Avance NEO) spectrometer equipped with cryo-probe. The molar ratio of the peptide to the virus was 90:1. The experiments were recorded using zgespg pulse for 128 scans at 298k and the results were analyzed by Topspin.

EV71 virus [2] = assay: 1H NMR titration of peptide with EV71 virus; format: binding, enterovirus 71 (EV71); settings: molar ratio peptide to virus 90:1, 800 MHz, 298k
Protocol: as §2

Structure (SMILES) | temperature of peak SYBR green fluorescence intensity (RNA release) (EV71 virions) [°C] | CC50 (RD cells) | inhibition of EV71 infection at 0.3, 0.9, or 1.5 μM (EV71 virus [1]) | inhibition of EV71 infection at higher concentration (EV71 virus [1]) | inhibition of EV71 infection (overall conclusion) (EV71 virus [1]; VP1 expression, viral titer, crystal violet and Cell Titer Glo 24 h.p.i) | interaction of peptide with CVB5 virus by 1H 1D NMR (amide region) (CVB5 virus) | interaction of peptide with EV71 virus by 1H 1D NMR (amide region) (EV71 virus [2])
[Cl-].[Na+] [NaCl, reference compound] | 55 |  |  |  |  |  | 
CC[C@H](C)[C@H](NC(=O)[C@H](CCCCN)NC(=O)[C@H](CCC(=O)O)NC(=O)[C@H](CCCCN)NC(=O)[C@H](CO)NC(=O)[C@H](CCCCN)NC(=O)[C@H](CCCNC(=N)N)NC(=O)[C@@H](N)Cc1ccccc1)C(=O)NCC(=O)N[C@@H](CCCCN)C(=O)N[C@@H](CCC(=O)O)C(=O)N[C@@H](Cc1ccccc1)C(=O)N[C@@H](CCCCN)C(=O)N[C@@H](CCCNC(=N)N)C(=O)N[C@H](C(=O)N[C@H](C(=O)N[C@@H](CCC(N)=O)C(=O)N[C@@H](CCCNC(=N)N)C(=O)N[C@H](C(=O)N[C@@H](CCCCN)C(=O)N[C@@H](CC(=O)O)C(=O)N[C@@H](Cc1ccccc1)C(=O)N[C@@H](CC(C)C)C(=O)N[C@@H](CCCNC(=N)N)C(=O)N[C@@H](CC(N)=O)C(=O)N[C@@H](CC(C)C)C(=O)N[C@H](C(=O)O)C(C)C)[C@@H](C)CC)C(C)C)[C@@H](C)CC (racemic) [DL-37] |  | over 50 μM | could not inhibit EV71 infection | only showed inhibition at a much higher concentration | little antiviral activity |  | 
CC[C@H](C)[C@H](NC(=O)[C@H](CCCCN)NC(=O)[C@H](CCC(=O)O)NC(=O)[C@H](CCCCN)NC(=O)[C@H](CO)NC(=O)[C@H](CCCCN)NC(=O)[C@H](CCCNC(=N)N)NC(=O)[C@H](Cc1ccccc1)NC(=O)[C@H](Cc1ccccc1)NC(=O)[C@H](CC(=O)O)NC(=O)CNC(=O)[C@H](CC(C)C)NC(=O)[C@@H](N)CC(C)C)C(=O)NCC(=O)N[C@@H](CCCCN)C(=O)N[C@@H](CCC(=O)O)C(=O)N[C@@H](Cc1ccccc1)C(=O)N[C@@H](CCCCN)C(=O)N[C@@H](CCCNC(=N)N)C(=O)N[C@H](C(=O)N[C@H](C(=O)N[C@@H](CCC(N)=O)C(=O)N[C@@H](CCCNC(=N)N)C(=O)N[C@H](C(=O)N[C@@H](CCCCN)C(=O)N[C@@H](CC(=O)O)C(=O)N[C@@H](Cc1ccccc1)C(=O)N[C@@H](CC(C)C)C(=O)N[C@@H](CCCNC(=N)N)C(=O)N[C@@H](CC(N)=O)C(=O)N[C@@H](CC(C)C)C(=O)N[C@H](C(=O)N1CCC[C@H]1C(=O)N[C@@H](CCCNC(=N)N)C(=O)N[C@H](C(=O)N[C@@H](CCC(=O)O)C(=O)N[C@@H](CO)C(=O)O)[C@@H](C)O)C(C)C)[C@@H](C)CC)C(C)C)[C@@H](C)CC [LL-37, reference compound] |  | over 50 μM | could not inhibit EV71 infection | only showed inhibition at a much higher concentration |  | no interaction between the peptide and viruses | no interaction between the peptide and viruses
